From publication PMC3358306 (PLoS ONE, 2012)

Biological target: T1, afRio1 (Rio1 kinase) (Archaeoglobus fulgidus, UniProt O28471)
T1 construct: full-length
Assay: thermal shift (Thermofluor), Tm […] to […] °C
Format: binding

T1 sequence (O28471 whole entry): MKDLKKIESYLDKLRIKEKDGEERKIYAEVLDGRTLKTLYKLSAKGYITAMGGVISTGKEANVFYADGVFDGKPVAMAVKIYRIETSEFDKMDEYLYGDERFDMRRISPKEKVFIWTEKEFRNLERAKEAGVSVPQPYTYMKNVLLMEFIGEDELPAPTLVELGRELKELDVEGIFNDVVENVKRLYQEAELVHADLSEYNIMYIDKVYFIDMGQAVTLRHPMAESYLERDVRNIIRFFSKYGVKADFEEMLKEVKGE

With `NC(=O)c1cn([C@@H]2O[C@H](CO)[C@@H](O)[C@H]2O)c2ncnc(N)c12` [sangivamycin] the “thermal shift (Thermofluor), Tm 76 to 82 °C” value was 82 °C.
